From ChEMBL document CHEMBL1949598, “Synthesis, cytostatic activity and ADME properties of C-5 substituted and N-acyclic pyrimidine derivatives” (Bioorg Med Chem Lett, 2012) come the findings set out here.

What is called IC50 is the concentration that inhibits the measured activity by half.

In assay [1] the test system is HCT-116. As to the kind of experiment: Cytotoxicity against human HCT116 cells up to 100 uM after 72 hrs by MTT assay. In kind it is functional, cell-based. A general note: Formazan colour is commonly taken as a measure of viable cells.
In assay [2] the test system is NCI-H460. The experiment in a line: Cytotoxicity against human H460 cells after 72 hrs by MTT assay. The format is functional, cell-based. The following applies: NCI-H460, 72 h.
The test system of assay [3] is MCF7. The experiment in a line: cells. The following applies: Homo sapiens, MCF7, 72 h.
Description: Cytotoxicity against human MCF7 cells after 72 hrs by MTT assay
In assay [4] the test system is NCI-H460. The experiment in a line: Cytotoxicity against human H460 cells up to 100 uM after 72 hrs by MTT assay. In kind it is functional, cell-based.
Assay [5] concerns HCT-116. As to the kind of experiment: cells. The following applies: Homo sapiens, HCT-116, 72 h.
For assay [6], the system named is MCF7. As to the kind of experiment: Cytotoxicity against human MCF7 cells up to 100 uM after 72 hrs by MTT assay. The format is functional, cell-based.

Each structure is given as a SMILES string. Active and inactive are the calls of the source. The rule behind the calls is not given here.

For `Clc1ncc2c(n1)OCC2`, the “growth inhibition (GI)” value in assay [1], in assay [4] and in assay [6] was “Active” throughout. The figures for the IC50 in assay [2], in assay [3] and in assay [5] were 22 µM, 45 µM and 13 µM, respectively.

Turning to `COCn1cc(CCF)c(=O)[nH]c1=O`, the “growth inhibition (GI)” value in assay [1], in assay [4] and in assay [6] was “inactive” throughout.

`COCOCCc1cn(COC)c(=O)nc1OC`: the “growth inhibition (GI)” value in assay [1], in assay [4] and in assay [6] was “inactive” each time.

`COCn1c(=O)[nH]cc(CCOC(C)=O)c1=O`: the “growth inhibition (GI)” value in assay [1], in assay [4] and in assay [6] was “inactive” in each case.

On to `OCCc1cnc(Cl)nc1Cl`, for which the “growth inhibition (GI)” value in assay [1], in assay [4] and in assay [6] was “inactive” in each case.

Take `COCn1c(=O)[nH]cc(CCO)c1=O`: the “growth inhibition (GI)” value in assay [1], in assay [4] and in assay [6] was “inactive” in each case.

As to `COc1ncc2c(n1)OCC2`, the “growth inhibition (GI)” value in assay [1], in assay [4] and in assay [6] was “inactive” each time.

Take `COc1nc(Cl)ncc1CCO`: the “growth inhibition (GI)” value in assay [1], in assay [4] and in assay [6] was “inactive” throughout.

Turning to `COCn1cc(CCOC(C)=O)c(=O)n(COC)c1=O`, the “growth inhibition (GI)” value in assay [1], in assay [4] and in assay [6] was “inactive” in each case.

With `CC(=O)OCCc1cnc(Cl)nc1Cl`, the “growth inhibition (GI)” value in assay [1], in assay [4] and in assay [6] was “Active” each time. Besides, the values for the IC50 in assay [2], in assay [3] and in assay [5] were 31 µM, 30 µM and 29 µM, respectively.

For `COCn1cc(CCOC(C)=O)c(=O)[nH]c1=O`, the “growth inhibition (GI)” value in assay [1], in assay [4] and in assay [6] was “inactive” each time.
